Patent publication US20150366839A1, “Schisantherin A for the treatment of neurodegenerative diseases” (priority 2014, published 2015)

Key:
P-gp = P-gp (Homo sapiens, UniProt P08183); details: Pan, Lu et al. 2006; cited from earlier work
GSK3β = GSK3β phosphorylation (Ser9) after 6-OHDA, Western blot; format: cell-based, Human; details: pretreated 12 h, then 400 μM 6-OHDA 4 h
Protocol: After treatment, SH-SY5Y cells were washed three times with PBS and then lysis with RIPA lysis buffer containing 1% PMSF and 1% Protease Inhibitor Cocktail and incubated for 30 min on ice. Cell lysates were centrifuged at 12,500 g for 20 min at 4° C. The supernatant was separated and the amount of protein was determined using the BCA protein assay kit (Thermo Scientific Pierce, USA). Protein samples (30 μg) were separated by SDS-PAGE (10% (w/v)) polyacrylamide gel and then transferred to a polyvinylidene difluoride (PVDF) membrane (Bio-Rad, Hercules, Calif.). Subsequently, the membrane was blocked with 5% (v/v) non-fat milk in PBST (PBS containing 0.1% Tween 20) for 1 h at room temperature. The blots were incubated overnight at 4° C. with primary antibodies. After three washes with PBST, the membranes were incubated with horseradish peroxidase-conjugated secondary antibodies (1:2000) in PBST with 5% non-fat milk for 1 h at room temperature. After repeated washes, proteins were visualized with an ECL advanced western blotting detection kit. Photographs of protein bands were taken by a Molecular Imager ChemiDoc XRS (Bio-Rad, Hercules, Calif.). Quantitative assessment of protein bands was done with Gel Doc™ XRS equipped with Quantity One software. […]

caspase-7 = test: MPP+-induced caspase-7 activation, Western blot; format: cell-based, Human; details: 60 μM 12 h, then 2 mM MPP+ 36 h
Protocol: After treatment, SH-SY5Y cells were washed three times with PBS and then lysis with RIPA lysis buffer containing 1% PMSF and 1% Protease Inhibitor Cocktail and incubated for 30 min on ice. Cell lysates were centrifuged at 12,500 g for 20 min at 4° C. The supernatant was separated and the amount of protein was determined using the BCA protein assay kit (Thermo Scientific Pierce, USA). Protein samples (30 μg) were separated by SDS-PAGE (10% (w/v)) polyacrylamide gel and then transferred to a polyvinylidene difluoride (PVDF) membrane (Bio-Rad, Hercules, Calif.). Subsequently, the membrane was blocked with 5% (v/v) non-fat milk in PBST (PBS containing 0.1% Tween 20) for 1 h at room temperature. The blots were incubated overnight at 4° C. with primary antibodies. After three washes with PBST, the membranes were incubated with horseradish peroxidase-conjugated secondary antibodies (1:2000) in PBST with 5% non-fat milk for 1 h at room temperature. […] Quantitative assessment of protein bands was done with Gel Doc™ XRS equipped with Quantity One software.
The inventors performed Western blot to measure the expression of active-form of caspase-3 and caspase-7 in SH-SY5Y cells. […] Caspase-3 activity was expressed as units per mg protein. ###p<0.005 versus control group; *p<0.05, **p<0.01 and *** p<0.005 versus MPP+ group.

[1] = system: intracellular ROS in SH-SY5Y cells; test: 6-OHDA-induced ROS accumulation (CM-H2DCFDA); format: cell-based, Human
Protocol: SH-SY5Y cells seeded at 96-well plates (1×10^4 cells/well) were incubated with 5 μM fluorescent probe CM-H2DCFDA at 37° C. for 20 min after treatment with SchiA or 6-OHDA. The fluorescence intensity was determined by multi-label counter at wavelengths of excitation at 493 nm and emission at 522 nm.
The generation of excess ROS by auto-oxidation of 6-OHDA, considered to be involved in 6-OHDA-induced cellular injury (Cohen and Heikkila 1974). Therefore, to examine whether SchiA prevented the production of ROS from 6-OHDA, the accumulation of ROS was measured by fluorescent probe CM-H2DCFDA in SH-SY5Y cells. The fluorescence intensity of CM-H2DCFDA was measured after SH-SY5Y cell were pretreated with different concentrations of SchiA for 12 h and then treated with or without 400 μM 6-OHDA for 4 h. The results of FIG. 3 are expressed as a percentage of that of the control group. ###P<0.005 versus control group; *p<0.05, **p<0.01 and *** p<0.005 versus 6-OHDA group.

zebrafish larvae = details: 2.5-10 μM with 10 μM MPTP, 4 days, 10 min session
Protocol: The wild type zebrafish was used for this study. Embryos were collected after natural spawning, staged according to standard criteria and raised synchronously at 28.5° C. in embryo medium (13.7 mM NaCl, 540 μM KCl, pH 7.4, 25 μM Na2HPO4, 44 μM KH2PO4, 300 μM CaCl2, 100 μM MgSO4, 420 μM NaHCO3, pH 7.4). Zebrafish were staged by days post fertilization (dpf) according to criteria. […] Drugs (i.e. the five lignans) were dissolved in DMSO and directly added into the zebrafish embryo medium to treat fish. […] An equal concentration of DMSO in embryo medium was used as vehicle control in each experiment.
Then the total distance of movement was defined as the distance (in cm) was recorded using a 96-well plate filled with 200 μL embryo medium in a 10 minutes long session. Zebrafish were allowed to accommodate to the environment of the system for 1 hour before the start of the data acquisition.
In this study, Zebrafish larvae at 3 dpf were exposed to 2.5-10 μM SchiA with or without 10 μM MPTP for another 4 days, and zebrafish larval co-treated with MPTP and 150 μM L-dopa or 3 μM NOM (Nomifensine) were used as positive controls. After treatment, zebrafish were collected to perform locomotion behavior test using Viewpoint Zebrabox system and total distances travelled in 10 min were calculated. […]

Chain of P-gp (P08183 whole entry): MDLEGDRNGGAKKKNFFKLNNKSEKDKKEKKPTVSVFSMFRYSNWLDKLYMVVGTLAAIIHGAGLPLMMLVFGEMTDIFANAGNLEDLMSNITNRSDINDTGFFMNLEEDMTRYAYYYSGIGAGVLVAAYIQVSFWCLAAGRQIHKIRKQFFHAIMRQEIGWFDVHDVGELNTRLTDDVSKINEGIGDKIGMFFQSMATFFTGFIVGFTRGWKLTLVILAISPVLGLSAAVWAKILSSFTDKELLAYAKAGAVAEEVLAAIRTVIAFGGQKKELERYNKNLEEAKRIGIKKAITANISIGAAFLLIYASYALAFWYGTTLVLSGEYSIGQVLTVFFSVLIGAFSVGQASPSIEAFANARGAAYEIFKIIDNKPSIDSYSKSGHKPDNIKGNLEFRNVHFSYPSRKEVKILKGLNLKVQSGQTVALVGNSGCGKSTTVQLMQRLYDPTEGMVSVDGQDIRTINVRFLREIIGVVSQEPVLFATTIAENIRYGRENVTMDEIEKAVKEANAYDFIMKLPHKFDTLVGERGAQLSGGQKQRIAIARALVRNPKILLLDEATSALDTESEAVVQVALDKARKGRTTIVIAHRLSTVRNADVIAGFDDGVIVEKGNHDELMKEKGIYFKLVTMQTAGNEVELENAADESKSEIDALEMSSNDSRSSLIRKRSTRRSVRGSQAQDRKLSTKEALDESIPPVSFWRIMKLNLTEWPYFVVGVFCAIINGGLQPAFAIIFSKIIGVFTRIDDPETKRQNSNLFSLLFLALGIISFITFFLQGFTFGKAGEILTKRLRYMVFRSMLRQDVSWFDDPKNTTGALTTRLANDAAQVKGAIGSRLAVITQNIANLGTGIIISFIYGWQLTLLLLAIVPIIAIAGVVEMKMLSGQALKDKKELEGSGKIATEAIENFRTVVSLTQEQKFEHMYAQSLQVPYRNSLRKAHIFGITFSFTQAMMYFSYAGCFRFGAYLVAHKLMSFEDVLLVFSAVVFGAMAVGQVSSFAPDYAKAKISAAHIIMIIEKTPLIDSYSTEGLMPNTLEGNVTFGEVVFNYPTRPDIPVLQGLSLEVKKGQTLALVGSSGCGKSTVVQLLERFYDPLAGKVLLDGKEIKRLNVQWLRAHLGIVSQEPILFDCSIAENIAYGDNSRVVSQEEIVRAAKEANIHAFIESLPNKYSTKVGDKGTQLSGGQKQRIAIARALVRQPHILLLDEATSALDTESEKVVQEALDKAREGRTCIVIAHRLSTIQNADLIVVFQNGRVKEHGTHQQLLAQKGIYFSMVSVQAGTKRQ

## COc1cc2c(c(OC)c1OC)-c1c(cc3c(c1OC)OCO3)C[C@H](C)[C@](C)(O)[C@H]2OC(=O)c1ccccc1 [SchiA, Schisantherin A]
P-gp
  P-gp inhibition: potent P-gp inhibitor
GSK3β
  6-OHDA-induced repression of GSK3β phosphorylation at serine 9: completely blocked
caspase-7
  MPP+-induced caspase-7 activation (active form): significant decrease
[1]; 3, 6, 12, 25 and 50 μM 12 h, then 400 μM 6-OHDA 4 h
  6-OHDA-induced intracellular ROS level: significantly reduced
[1]; without 6-OHDA
  intracellular ROS levels, compound alone: no obvious effect
Zebrafish larvae
  MPTP-induced reduction of total distance of movement: inhibited MPTP-induced reduction of total distance of movement in zebrafish in a dose dependent manner
